{
  "source": "patent US7323441B2",
  "about": "“Use of lupin conglutin for the treatment of type II diabetes” (Indena S.p.A., priority 2003, dated 2008)",
  "system": "glucose plasma levels",
  "test": "Hypoglycemizing activity in rats after oral glucose administration (2 g/kg)",
  "type": "in vivo, rat",
  "conditions": "50 mg/kg os, 30 min before glucose 2 g/kg os; male CD rats; AUC 0 to 90 min; mean±M.S.E.",
  "protocol": "Male CD strain rats, of the starting weight 275-300 g, were used. The animals were housed in makrolon cages in environment with automatic control of light (12 hour light/12 hour darkness cycles), temperature (21±1° C.) and humidity (60±5%).\nLupin conglutin gamma prepared as reported in Example 2 was used. 100 rats (divided into in 5 groups of […] animals each) were pre-treated (time−30 min) with: • Group 1: carrier (1% carboxymethylcellulose [CMC]; 2 ml/kg os) • Group 2: lupin conglutin gamma (50 mg/kg os in 1% CMC) • Group 3: lupin conglutin gamma (100 mg/kg os in 1% CMC) • Group 4: lupin conglutin gamma (200 mg/kg os in 1% CMC) • Group 5: metformin (50 mg/kg os in 1% CMC) […]\nImmediately before the glucose administration (time 0 min) and 30, 60 and 90 min after the glucose administration, all the animals (n=5 rats for each time) were anaesthetized with sodium thiopental (50 mg/kg i.p.) and 5 ml of blood was drawn from the vena cava. Blood samples were collected in syringes containing EDTA (7.5 mM) as anticoagulant, and immediately subjected to centrifugation (2000 g×10 min at 4° C.) to obtain the plasma necessary for the enzymatic quantitation of glucose.\nThe quantitation of the glucose in rat plasma was carried out in triplicate by enzymatic assay (absorbance at 505 nm) and the glucose concentration was expressed in mg/dl. […]",
  "data": [
    {"molecule": "CN(C)C(=N)N=C(N)N", "note": "[metformin]", "values": [
      {"measurement": "area under the curve (AUC) of glucose plasma levels", "value": "1565±201"}
    ]}
  ]
}
